In ChEMBL document CHEMBL4673353, “Switching a Xanthine Oxidase Inhibitor to a Dual-Target Antagonist of P2Y and P2Y as an Oral Antiplatelet Agent with a Wider Therapeutic Window in Rats than Ticagrelor” (J Med Chem, 2020):
Each block holds one compound with its values, some of them ahead of it.

Columns and labels:
Cytochrome P450 2C19 = Cytochrome P450 2C19 (Homo sapiens, UniProt P33261); experiment: Inhibition of CYP2C19 in human liver microsomes using S-mephenytoin as substrate preincubated for 5 mins followed by NADPH generating system addition and measured after 120 mins by LC-MS/MS; assay type: ADME
Cytochrome P450 2C9 = Cytochrome P450 2C9 (Homo sapiens, UniProt P11712); experiment: Inhibition of CYP2C9 in human liver microsomes using tolbutamide as substrate preincubated for 5 mins followed by NADPH generating system addition and measured after 120 mins by LC-MS/MS; assay type: ADME
[1] = Stability of compound in rabbit plasma assessed as compound degradation at 10 uM incubated up to 45 mins by HPLC analysis; assay type: ADME, cell-free, Oryctolagus cuniculus; details: 0.75 h
[2] = Stability of compound in rat plasma assessed as compound degradation at 10 uM incubated up to 45 mins by HPLC analysis; assay type: ADME, cell-free; details: 0.75 h
Cytochrome P450 2E1 = Cytochrome P450 2E1 (Homo sapiens, UniProt P05181); experiment: Inhibition of CYP2E1 in human liver microsomes using chlorzoxazone as substrate preincubated for 5 mins followed by NADPH generating system addition and measured after 120 mins by LC-MS/MS; assay type: ADME
[3] = Elimination half-life in male Sprague-Dawley rat at 10 mg/kg, iv administered as single dose by LC-MS analysis; assay type: ADME, organism-based; details: in vivo, read-out: beta t1/2 (converted)
[4] = Clearance in male Sprague-Dawley rat at 10 mg/kg, iv administered as single dose by LC-MS analysis; assay type: ADME, organism-based; details: in vivo
Cytochrome P450 2A6 = target: T1, Cytochrome P450 2A6 (Homo sapiens, UniProt P11509); experiment: Inhibition of CYP2A6 in human liver microsomes using coumarin as substrate preincubated for 5 mins followed by NADPH generating system addition and measured after 120 mins by LC-MS/MS; assay type: ADME
T1 sequence (P11509 whole entry): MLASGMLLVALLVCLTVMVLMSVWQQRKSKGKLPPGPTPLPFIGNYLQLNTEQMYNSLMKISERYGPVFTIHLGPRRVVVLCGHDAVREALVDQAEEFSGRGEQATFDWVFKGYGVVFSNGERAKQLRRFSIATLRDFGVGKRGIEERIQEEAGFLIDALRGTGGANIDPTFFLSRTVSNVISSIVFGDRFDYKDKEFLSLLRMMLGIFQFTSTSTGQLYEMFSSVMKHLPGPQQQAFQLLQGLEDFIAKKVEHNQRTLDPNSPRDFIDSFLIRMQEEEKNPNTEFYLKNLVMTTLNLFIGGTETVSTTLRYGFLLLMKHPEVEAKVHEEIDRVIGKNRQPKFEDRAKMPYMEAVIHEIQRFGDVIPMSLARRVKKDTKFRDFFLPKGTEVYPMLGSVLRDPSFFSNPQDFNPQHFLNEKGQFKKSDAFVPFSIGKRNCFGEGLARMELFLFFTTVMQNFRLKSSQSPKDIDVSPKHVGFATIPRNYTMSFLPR

[5] = AUC (0 to infinity) in male Sprague-Dawley rat at 10 mg/kg, iv administered as single dose by LC-MS analysis; assay type: ADME, organism-based; set-up: time infinity, route intravenous, dose 10 mg/kg; details: in vivo
Cytochrome P450 3A4 = Cytochrome P450 3A4 (Homo sapiens, UniProt P08684); experiment: Inhibition of CYP3A4 in human liver microsomes using testosterone as substrate preincubated for 5 mins followed by NADPH generating system addition and measured after 120 mins by LC-MS/MS; assay type: ADME
Cytochrome P450 2D6 = Cytochrome P450 2D6 (Homo sapiens, UniProt P10635); experiment: Inhibition of CYP2D6 in human liver microsomes using dextromethorphan as substrate preincubated for 5 mins followed by NADPH generating system addition and measured after 120 mins by LC-MS/MS; assay type: ADME
Cytochrome P450 1A2 = target: T2, Cytochrome P450 1A2 (Homo sapiens, UniProt P05177); experiment: Inhibition of CYP1A2 in human liver microsomes using phenacetin as substrate preincubated for 5 mins followed by NADPH generating system addition and measured after 120 mins by LC-MS/MS; assay type: ADME
T2 sequence (P05177 whole entry): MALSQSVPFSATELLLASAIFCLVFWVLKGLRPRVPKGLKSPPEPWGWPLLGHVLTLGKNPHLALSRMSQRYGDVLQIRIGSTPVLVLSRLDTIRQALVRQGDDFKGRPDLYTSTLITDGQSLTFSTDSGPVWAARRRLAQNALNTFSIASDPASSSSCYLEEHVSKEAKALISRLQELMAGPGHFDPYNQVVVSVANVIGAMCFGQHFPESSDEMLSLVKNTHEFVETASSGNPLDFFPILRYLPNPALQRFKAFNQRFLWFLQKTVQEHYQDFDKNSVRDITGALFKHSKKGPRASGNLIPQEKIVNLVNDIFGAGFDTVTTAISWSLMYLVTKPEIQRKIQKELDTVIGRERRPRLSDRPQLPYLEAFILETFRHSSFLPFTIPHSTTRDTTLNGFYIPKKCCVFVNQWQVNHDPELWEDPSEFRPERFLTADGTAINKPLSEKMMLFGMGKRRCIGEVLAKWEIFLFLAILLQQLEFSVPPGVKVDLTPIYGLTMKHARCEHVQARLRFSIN

[6] = Toxicity in Sprague-Dawley rat model of tail snip bleeding assessed as increase in bleeding weight at 10 mg/kg, po administered via gavage as single dose measured within 2 hrs post tail snip relative to control; assay type: organism-based; details: in vivo
[7] = Toxicity in Sprague-Dawley rat model of tail-snip bleeding assessed as increase in bleeding time at 10 mg/kg, po administered via gavage as single dose measured within 2 hrs post tail snip relative to control; assay type: organism-based; details: in vivo
[8] = Drug metabolism in human liver microsome assessed as 1-[(4-Cyanobenzyl)oxy]-2-(3-cyanophenyl)-4-methyl-1H-imidazole-5-carboxylic acid formation at 0.2 uM in presence of NADPH measured up to 90 mins by LC-MS/MS analysis; assay type: ADME; details: microsomes, 1.5 h
Rattus norvegicus [9] = experiment: Antithrombotic activity in FeCl3-induced Sprague-Dawley rat model of arterial thrombosis assessed as reduction in thrombus weight administered orally once daily for 7 days and measured 2 hrs post last dose; assay type: functional; details: dose 5-20 mg/kg
[10] = Toxicity in Sprague-Dawley rat model of tail-snip bleeding assessed as bleeding time at 10 mg/kg, po administered via gavage as single dose measured within 2 hrs post tail snip (reference value: 17.69 min); assay type: organism-based; details: in vivo
Rattus norvegicus [11] = experiment: Antithrombotic activity in FeCl3-induced Sprague-Dawley rat model of arterial thrombosis assessed as reduction in thrombus weight at 5 mg/kg, po qd administered as single dose for 7 days and measured 2 hrs post last dose; assay type: functional; set-up: scale not given: the % may be the effect or the level left; details: time 7 day
[12] = Metabolic stability of compound in human liver microsomes assessed as intrinsic clearance per mg protein at 0.2 uM in presence of NADPH measured up to 90 mins by LC-MS/MS analysis; assay type: ADME, Microsome; details: 1.5 h
Rattus norvegicus [13] = experiment: Antithrombotic activity in FeCl3-induced Sprague-Dawley rat model of arterial thrombosis assessed as reduction in thrombus weight at 10 mg/kg, po qd administered as single dose for 7 days and measured 2 hrs post last dose; assay type: functional; set-up: scale not given: the % may be the effect or the level left; details: time 7 day
Rattus norvegicus [14] = experiment: Antithrombotic activity in FeCl3-induced Sprague-Dawley rat model of arterial thrombosis assessed as reduction in thrombus weight at 20 mg/kg, po qd administered as single dose for 7 days and measured 2 hrs post last dose; assay type: functional; set-up: scale not given: the % may be the effect or the level left; details: time 7 day
[15] = Solubility of compound; assay type: physicochemical

Sequence of Cytochrome P450 3A4 (P08684 whole entry): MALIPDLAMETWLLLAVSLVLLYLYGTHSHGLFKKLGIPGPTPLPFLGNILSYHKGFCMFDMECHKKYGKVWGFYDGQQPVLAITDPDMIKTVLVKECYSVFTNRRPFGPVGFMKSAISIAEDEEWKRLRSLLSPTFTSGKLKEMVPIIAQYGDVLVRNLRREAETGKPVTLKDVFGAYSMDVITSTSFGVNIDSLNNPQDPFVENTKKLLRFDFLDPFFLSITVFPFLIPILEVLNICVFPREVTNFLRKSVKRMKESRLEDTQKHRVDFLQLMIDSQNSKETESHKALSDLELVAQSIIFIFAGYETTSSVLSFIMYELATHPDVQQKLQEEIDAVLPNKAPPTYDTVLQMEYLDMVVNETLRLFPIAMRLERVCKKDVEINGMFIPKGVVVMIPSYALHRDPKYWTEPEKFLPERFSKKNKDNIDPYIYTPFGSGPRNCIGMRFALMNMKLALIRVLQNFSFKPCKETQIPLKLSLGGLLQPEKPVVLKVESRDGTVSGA
Sequence of Cytochrome P450 2C9 (P11712 whole entry): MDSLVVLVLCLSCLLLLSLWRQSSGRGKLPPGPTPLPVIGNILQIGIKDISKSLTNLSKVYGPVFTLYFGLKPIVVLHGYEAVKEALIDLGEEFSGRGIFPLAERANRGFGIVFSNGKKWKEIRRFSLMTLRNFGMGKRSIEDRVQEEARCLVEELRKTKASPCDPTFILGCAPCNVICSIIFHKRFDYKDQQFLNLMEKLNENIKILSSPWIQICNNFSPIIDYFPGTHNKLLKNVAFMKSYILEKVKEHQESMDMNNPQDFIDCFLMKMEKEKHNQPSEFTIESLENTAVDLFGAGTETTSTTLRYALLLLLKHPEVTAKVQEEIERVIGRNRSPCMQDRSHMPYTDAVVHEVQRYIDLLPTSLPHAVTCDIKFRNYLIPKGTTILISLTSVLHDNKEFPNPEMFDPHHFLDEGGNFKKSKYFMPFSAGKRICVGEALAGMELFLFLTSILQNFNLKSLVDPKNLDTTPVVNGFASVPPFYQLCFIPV
Sequence of Cytochrome P450 2C19 (P33261 whole entry): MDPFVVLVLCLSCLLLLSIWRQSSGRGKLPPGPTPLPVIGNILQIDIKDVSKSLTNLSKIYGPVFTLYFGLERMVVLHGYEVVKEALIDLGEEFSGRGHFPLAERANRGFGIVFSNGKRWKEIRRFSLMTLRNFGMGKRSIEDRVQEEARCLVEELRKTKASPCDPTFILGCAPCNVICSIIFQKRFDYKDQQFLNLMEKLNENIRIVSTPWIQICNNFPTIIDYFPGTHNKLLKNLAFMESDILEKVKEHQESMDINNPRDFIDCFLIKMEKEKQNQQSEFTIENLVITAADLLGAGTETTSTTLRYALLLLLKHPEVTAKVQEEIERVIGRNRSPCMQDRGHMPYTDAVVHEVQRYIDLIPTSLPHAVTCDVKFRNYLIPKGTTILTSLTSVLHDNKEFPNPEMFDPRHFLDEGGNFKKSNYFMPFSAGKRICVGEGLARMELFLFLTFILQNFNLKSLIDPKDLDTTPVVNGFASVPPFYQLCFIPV
Sequence of Cytochrome P450 2E1 (P05181 whole entry): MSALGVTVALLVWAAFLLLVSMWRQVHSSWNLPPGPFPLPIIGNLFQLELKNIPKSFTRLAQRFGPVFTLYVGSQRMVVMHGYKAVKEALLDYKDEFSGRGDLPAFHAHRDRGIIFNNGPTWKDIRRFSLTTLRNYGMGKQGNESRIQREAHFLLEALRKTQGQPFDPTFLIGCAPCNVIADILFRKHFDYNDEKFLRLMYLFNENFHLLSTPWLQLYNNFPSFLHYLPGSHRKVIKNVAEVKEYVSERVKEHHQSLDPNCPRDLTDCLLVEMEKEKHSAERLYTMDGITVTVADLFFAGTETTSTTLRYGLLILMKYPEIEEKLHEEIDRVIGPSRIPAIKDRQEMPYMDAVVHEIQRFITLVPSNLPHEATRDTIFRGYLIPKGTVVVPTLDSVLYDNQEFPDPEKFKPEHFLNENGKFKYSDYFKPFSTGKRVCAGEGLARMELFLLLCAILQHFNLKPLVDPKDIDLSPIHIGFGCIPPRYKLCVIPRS
Sequence of Cytochrome P450 2D6 (P10635 whole entry): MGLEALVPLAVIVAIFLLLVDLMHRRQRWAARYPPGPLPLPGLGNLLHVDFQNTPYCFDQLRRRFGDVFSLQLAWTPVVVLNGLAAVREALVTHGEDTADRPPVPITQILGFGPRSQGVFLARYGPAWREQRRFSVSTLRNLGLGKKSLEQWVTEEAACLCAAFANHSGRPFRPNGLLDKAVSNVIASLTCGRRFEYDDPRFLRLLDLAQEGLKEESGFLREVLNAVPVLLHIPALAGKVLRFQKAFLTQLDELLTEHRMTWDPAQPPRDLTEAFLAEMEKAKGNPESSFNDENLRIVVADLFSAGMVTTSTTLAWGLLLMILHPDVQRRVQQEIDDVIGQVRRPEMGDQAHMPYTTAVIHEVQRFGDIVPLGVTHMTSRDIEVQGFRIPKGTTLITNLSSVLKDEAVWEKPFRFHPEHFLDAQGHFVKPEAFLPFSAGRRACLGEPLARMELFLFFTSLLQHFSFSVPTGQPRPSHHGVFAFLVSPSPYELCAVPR

- IC50 (Cytochrome P450 2C19): > 10 µM
- IC50 (Cytochrome P450 2C9): > 10 µM
- Stabilty [1]: Stable
- Stabilty [2]: Stable
- IC50 (Cytochrome P450 2E1): > 10 µM
- half-life [3]: 4.89 h
- clearance [4]: 50.5 mL/min/kg
- IC50 (Cytochrome P450 2A6): > 10 µM
- AUC(0-inf) [5]: 3500 ng·h/mL
- IC50 (Cytochrome P450 3A4): > 10 µM
- IC50 (Cytochrome P450 2D6): > 10 µM
- IC50 (Cytochrome P450 1A2): > 10 µM
Compound: Cc1nc(-c2cccc(C#N)c2)n(OCc2ccc(C#N)cc2)c1C(=O)O

Compound: CCOC(=O)c1c(C)nc(-c2cccc(C#N)c2)n1OCc1ccc(C#N)cc1
- fold change (FC) [6]: 5
- fold change (FC) [7]: 1.92
- Drug metabolism [8]: Metabolite_Detected
- Activity (Rattus norvegicus [9]; time 7.0 day): Dose-dependent effect
- ED50 (Rattus norvegicus [9]; po, 168 h, time 7 day): 20.8 mg/kg
- Time [10]: 33.94 min
- Activity (Rattus norvegicus [11]): 22.6%
- CLH [12]: 0.011 mL/min
- Activity (Rattus norvegicus [13]): 40.7%
- Activity (Rattus norvegicus [14]): 46.7%
- solubility [15]: Insoluble
